Here are results for two substances from US6849722B2, “Polymerized oligopeptide-surfactant chiral micelles” (Board of Supervisors of Louisiana State University and …, priority 1998, dated 2005).

For data set [1] the following is noted: cited from earlier work.
Data set [2] can be described thus: Critical micelle concentration by surface tension measurement. In kind it is physicochemical. As to conditions: in pure water. The method, then:
Table 1 compares the structural features and physicochemical properties of L-SUV and L-SUVV. The critical micelle concentration (“CMC”) for both chiral surfactants was measured by following a linear decrease in surface tension as surfactant concentration increased, up to a point. After this point, no appreciable change in surface tension was observed. The point of intersection of the two lines (the linear decrease and the flat line thereafter) was taken as the CMC of the surfactants. The greater hydrophobicity of L-SUVV compared to L-SUV gave the former a lower CMC. In addition, an increase in the molecular weight decreased the mobility of L-SUVV toward the injector end. Thus, L-SUVV eluted faster than L-SUV, as it was carried more rapidly by bulk electroosmotic flow (EOF) towards the detection window.
All surfactants in this study were synthesized according to the procedure of Wang, J.; Warner, I. M. Anal. Chem. 1994, 66, 3773-3776. […] The critical micelle concentrations of the surfactants were determined by surface tension measurements as previously described. […] These numbers were calculated from average molecular weights as determined by ultracentrifugation. All monomers and polymers used in this study were 99% pure or better, as determined from elemental analysis.

The nature of data set [3]: Effective electrophoretic mobility by capillary zone electrophoresis/indirect photometric detection. In kind it is physicochemical. The following applies: 100 mM boric acid and 5 mM Na2B4O7, pH 8.0; NMS light-absorbing electrolyte.

Take tris (hydroxymethyl)aminomethane: in data set [1], the pKa entry was “around 8”.

For “sodium N-undecylenyl-L-valine-L-valine [L-U-Val-Val]”, in data set [2], the “critical micelle concentration (CMC)” value worked out at 10 mM. In addition, in data set [3], the “effective electrophoretic mobility (μep)” value was −1.2 × 10^−4 cm^−2 V^−1 s^−1.
